According to US20110124574A1, “RESTORATION OF ESTROGEN RECEPTOR-(ALPHA) ACTIVITY” (priority 2008, published 2011):
Where no end group is shown, it is not given here. The star is where a group is joined. For = O=C*

B1: recombinant Wnt-5a: recombinant Wnt-5a protein (R&D Systems) (protein, UniProt P41221 62-380, looked up)
Protein Wnt-5a: IIGAQPLCSQLAGLSQGQKKLCHLYQDHMQYIGEGAKTGIKECQYQFRHRRWNCSTVDNTSVFGRVMQIGSRETAFTYAVSAAGVVNAMSRACREGELSTCGCSRAARPKDLPRDWLWGGCGDNIDYGYRFAKEFVDARERERIHAKGSYESARILMNLHNNEAGRRTVYNLADVACKCHGVSGSCSLKTCWLQLADFRKVGDALKEKYDSAAAMRLNSRGKLVQVNSRFNSPTTQDLVYIDPSPDYCVRNESTGSLGTQGRLCNKTSEGMDGCELMCCGRGYDQFKTVQTERCHCKFHWCCYVKCKKCTEIVDQFVCK

Tests used:
MDA-MB-231 cells = experiment: Nuclear (Hoechst) staining for apoptotic cells after tamoxifen; type: cell-based, human; conditions: MDA-MB-231, stimulation 24 and 48 hours, tamoxifen 5 μM for the last 20 hours
Protocol: MDA-MB-231 cells were grown in 6 well plates and stimulated with recombinant Wnt-5a protein (rW5a) or the Wnt-5a derived Foxy-5 peptide (F5), for 24 or 48 h. Cells were treated with tamoxifen for the final 20 h and their apoptotic responses were measured via different methods. […] Arrows highlight apoptotic cells. Bars represent […]. B: Following treatment with rW5a, F5 and tamoxifen, or tamoxifen alone, cells were lysed and subjected to SDS-PAGE, transferred to nitrocellulose membranes and blotted for cleaved caspase 3. C: Treated cells were assessed for their relative caspase 3 activity using fluorometric spectrophotometry. The graph represents 6 separate experiments. * P<0.01, ** P<0.001. D: MTT assays were also performed on MDA-MB-231 cells treated with rWnt-5a, F5 and tamoxifen, or tamoxifen alone (MDA-MB-231 and MCF-7 cells) to assess cell growth inhibition. The graph represents the average of 6 separate experiments, with standard deviation represented by error bars. ** P<0.01, *** P<0.001.
MDA-MB-231 cells were plated on cover slips and allowed to adhere. Wnt-5a (0.6 μg/ml) or Foxy-5 (100 μM) were added for 24 or 48 hours. Cells were then treated with tamoxifen (5 μM) for the last 20 hours. MCF-7 cells were used as a positive control. […] The morphology was analyzed with Nikon E800 Eclipse Microscope with 60× objective.

murine ERα = experiment: In vivo ERα RT-PCR in 4T1 primary breast tumors of Balb/C mice; design: species or system mouse; conditions: Balb/C mice with 4T1 cells in mammary fat pads, 20 μg every fourth day for 25 days
Protocol: 2.5×10^4 4T1 breast cancer cells were inoculated into the mammary fat pads of 8-week old Balb/C mice. The animals were subsequently treated with either PBS alone, the Rdm control peptide (20 μg) or Foxy-5 (20 μg), every 4th day, for 25 days. RNA was extracted from primary breast tumors from 4 animals in each group, and subjected to RT-PCR for murine ERα. Shown are primary tumor samples from two animals of each treatment group.
2.5×10^4 4T1 breast cancer cells were inoculated into the mammary fat pads of 8 week old Balb/C mice, that were subsequently treated with either PBS alone, the Rdm control peptide (20 μg), or Foxy-5 (20 μg) every 4th day, for 25 days as described in a previous publication from the inventors (9). RNA was extracted from flash frozen primary breast tumors from 4 animals in each group, and subjected to RT-PCR for murine ERα.

ERα = ERα protein expression by Western blot in stimulated MDA-MB-231 cells; type: cell-based, human; conditions: stimulation 24 and 48 hours, rWnt-5a 0.6 μg/ml, rWnt-3a 0.1 μg/ml, peptides 100 μM
Protocol: Breast cancer cells were grown in 6 well plates, and stimulated with recombinant Wnt-5a protein (rW5a), the Wnt-5a derived Foxy-5 peptide (F5), recombinant Wnt-3a protein (rW3a), or a formylated random hexapeptide (Rdm) for 24 or 48 h. Following treatment cells were lysed and subjected to SDS-PAGE, transferred to nitrocellulose membranes and blotted for ERα expression. A: MDA-MB-231 cells stimulated with recombinant Wnt-5a, Foxy-5, Wnt-3a, Rdm. B: MDA-MB-468 cells stimulated with recombinant Wnt-5a or Foxy-5. C: 4T1 cells stimulated with recombinant Wnt-5a or Foxy-5. Positive controls (Pos) were included in order to confirm the correct band size for ERα. Two different positive controls were used: T47D cell lysates known to express ERα and MDA-MB-231 cells transiently transfected with a full length ERα plasmid, resulting in extremely high ERα expression (top row, right panel, third row, right panel).
Stimulation of cells was performed with recombinant Wnt-5a (0.6 μg/ml) and recombinant Wnt-3a (0.1 μg/ml and in a control experiment, 0.6 μg/ml) (R&D Systems Abington, UK) for times as indicated. The Wnt-5a derived formylated hexapeptide, Foxy-5 (formyl-MDGCEL) (SEQ. ID. NO. 1) designed in the laboratory of the inventors, and a formylated random hexapeptide (formyl-MSADVG) (SEQ: ID: NO: 16) were either synthesized by Pepscan Presto (Lelystad, The Netherlands) or Inbiolabs (Tallinn, Estonia). The peptides were purified by RP-HPLC and mass spectrometry, and the >95% pure peptides were synthesized three times. Cells were treated with Foxy-5 or random peptide at a concentration of 100 μM for times as indicated. All other chemicals if not otherwise stated were purchased from Sigma Chemicals (St. Louis, Mo.).
Cells were lysed in Triton lysis buffer (50 mM Tris (pH7.5), 1% Triton x-100, 140 mM NaCl, 0.5 mM EDTA, 0.5 MgCl2, 10 mM NaF) with the addition of fresh leupeptin (1 μg/ml), Pefabloc (2 mM), aprotinin (20 μg/ml) and Na3VO4 (4 mM). […] Scanning and densitometry was performed using a Bio-Rad (Hercules Calif.) GS-800 densitometer with Quantity One software. […]

Row | Molecule | apoptotic cells by Hoechst staining in response to tamoxifen (MDA-MB-231 cells) | ERα expression in primary tumors (murine ERα) | levels of ERα protein (ERα)
1 | formyl-MDGCEL (For-MDGCEL; listed as Homo sapiens) [Foxy-5] | apoptotic cells displaying altered nuclear morphology | strong ERα expression | –
2 | B1 | apoptotic cells displaying altered nuclear morphology | – | increase
